Tests used:
[1] = system: PER1, BMAL1, CRY1, CLOCK, MT1 and MT2; assay: FACS analysis of clock proteins and MT1/MT2 in large mouse cholangiocyte lines; format: cell-based; conditions: in vitro melatonin vs. basal value
Experimental: (i) in paraffin-embedded liver sections ([…]) from normal and BDL control rats by immunohistochemistry ([…] al., 2009); and (ii) in total RNA (1 μg, by real-time PCR) (Francis et al., 2008) from purified cholangiocytes. […] FACS analysis was performed as described (Onori et al., 2010) using a C6 flow cytometer and analyzed by CFlow Software (Accuri Cytometers Inc. Ann Arbor, Mich.). At least 10,000 events in the light-scatter (SSC/FSC) were acquired. The expression of the selected protein was identified and gated on FL1-A/Count plots. The relative quantity of the selected protein (mean selected protein fluorescence) was expressed as mean FL1-A (samples)/mean FL-1A (secondary antibodies only).

[2] = Melatonin serum levels by ELISA in normal and BDL rats; format: in vivo; conditions: male, Fischer 344, rat, oral, 20 mg/L in drinking water, tap water containing melatonin (20 mg/L) for 1 week
Experimental: Male 344 Fischer rats (150-175 g) were purchased from Charles River (Wilmington, Mass.) and kept in a temperature-controlled environment (22° C.) with 12:12 hr light/dark cycles. Animals were fed ad libitum and had free access to food and drinking water. The studies were performed in normal rats, and in rats that immediately after bile duct ligation (BDL, for collection of serum, liver tissues and cells) (Alpini et al., 1988) or bile duct incannulation (BDI, for bile collection) (Alpini et al., 1988) had ad libitum access to tap water or tap water containing melatonin (20 mg/L in drinking water that corresponds to approximately an intake of melatonin of 2 mg/g BW per day per rat) (Anisimov et al., 2003) for 1 week. Before each surgical procedure, animals were anesthetized with sodium pentobarbital (50 mg/kg BW, IP).

[3] = Serum transaminases (SGPT, SGOT) and total bilirubin in normal and BDL rats; format: in vivo, rat; conditions: tap water containing melatonin (20 mg/L) for 1 week
Experimental: Male 344 Fischer rats (150-175 g) were purchased from Charles River (Wilmington, Mass.) and kept in a temperature-controlled environment (22° C.) with 12:12 hr light/dark cycles. Animals were fed ad libitum and had free access to food and drinking water. […] Before each surgical procedure, animals were anesthetized with sodium pentobarbital (50 mg/kg BW, IP). All animal experiments were performed in accordance with a protocol approved by the Scott and White and Texas A&M Health Science Center Institutional Animal Care and Use Committee and conform to the Guide for the Care and Use of Laboratory Animals published by the US National Institutes of Health (NIH Publication No. 85-23, revised 1996). In all animals, wet liver weight, body weight, wet liver weight to body weight ratio, and an index of liver cell growth including cholangiocytes were measured ([…] et al., 1988). In the selected groups of animals, the serum levels of the transaminases, serum glutamate pyruvate transaminases (SGPT) and serum glutamic oxaloacetic transaminase (SGOT) and total bilirubin were evaluated using a Dimension RxL Max Integrated Chemistry system (Dade Behring Inc., Deerfield Ill.) by the Chemistry Department, Scott & White. Melatonin serum levels were measured by commercially available ELISA kits according to the instructions provided by the vendor (Genway, San Diego, Calif.).

[4] = system: large cholangiocytes; assay: Secretin-stimulated cAMP levels (RIA) in purified large cholangiocytes from treated BDL rats; format: in vivo, rat; conditions: cholangiocytes from BDL rats treated with melatonin for 1 week; secretin 100 nM, 5 minutes
Experimental: The effect of secretin on cAMP levels was evaluated in purified large cholangiocytes and bile and bicarbonate secretion was evaluated in bile fistula rats, two functional indices of cholangiocyte hyperplasia (Alpini et al., 1998; Alpini et al., 1988; LeSage et al., 1999). Following purification, large cholangiocytes (1×10^5 cells) were incubated for 1 hour at 37° C. (Ishii et al., 1989) before stimulation with 0.2% bovine serum albumin (BSA) or secretin (100 nM) for 5 minutes at room temperature (Kato et al., 1992; LeSage et al., 1999; LeSage et al., 2004) before evaluation of cAMP levels by RIA (Alpini et al., 1998; Kato et al., 1992; LeSage et al., 1999; LeSage et al., 2004). For the studies of biliary physiology, after anesthesia, rats were surgically prepared for bile collection as described by us (Alpini et al., 1988). When steady-state bile flow was reached (60-70 minutes from the intravenous infusion of Krebs-Ringer-Henseleit solution, KRH), the animals were infused with secretin (100 nM) (LeSage et al., 1999; LeSage et al., 2004) for 30 minutes followed by IV infusion of KRH for 30 minutes (LeSage et al., 1999; LeSage et al., 2004). Bicarbonate concentration in bile was determined by an ABL™ 520 Blood Gas System (Radiometer Medical A/S, Copenhagen, Denmark).

[5] = system: large cholangiocytes; assay: Bile duct mass, PCNA-positive cholangiocytes and apoptosis (TUNEL) in liver sections; format: in vivo, rat
Experimental: Male 344 Fischer rats (150-175 g) were purchased from Charles River (Wilmington, Mass.) and kept in a temperature-controlled environment (22° C.) with 12:12 hr light/dark cycles. Animals were fed ad libitum and had free access to food and drinking water. […] Before each surgical procedure, animals were anesthetized with sodium pentobarbital (50 mg/kg BW, IP). All animal experiments were performed in accordance with a protocol approved by the Scott and White and Texas A&M Health Science Center Institutional Animal Care and Use Committee and conform to the Guide for the Care and Use of Laboratory Animals published by the US National Institutes of Health (NIH Publication No. 85-23, revised 1996). In all animals, wet liver weight, body weight, wet liver weight to body weight ratio, and an index of liver cell growth including cholangiocytes were measured ([…] et al., 1988). The following was also evaluated in paraffin-embedded liver sections ([…]): (i) lobular necrosis; (ii) the intrahepatic bile duct mass (IBDM) of large (>[…]) ([…] et al., 1997; Glaser et al., 2009) cholangiocytes, the only biliary cell types proliferating following […] et al., 1998; Glaser et al., 2009) and (iii) the percentage of cholangiocyte apoptosis by semiquantitative terminal deoxynucleotidyltransferase biotin-dUTP nick-end labeling (TUNEL) kit (Apoptag; Chemicon International, Inc.) (Glaser et al., 2010). Lobular necrosis was measured in liver sections stained for hematoxylin and eosin (Glaser et al., 2010). […] The IBDM was measured as area occupied by CK-19 positive-bile duct/total area×100 (Glaser et al., 2010). It was also evaluated by H&E of sections if melatonin administration induces the damage of kidney, heart, stomach, spleen and small and large intestine of normal and BDL rats. The sections from the selected were evaluated in a blinded-fashion by two board-certified pathologists by a BX-51 light microscope (Olympus, Tokyo, Japan) equipped with a camera.

[6] = BDL rats vs. corresponding control rats

With COc1ccc2[nH]cc(CCNC(C)=O)c2c1 [melatonin] the “Expression of MT1 and MT2 (FACS)” value [1] was “decreased”, the “Expression of PER1, BMAL1, CRY1 and CLOCK (FACS)” value [1] was “decreased” and the concentration at 1 week ([2]; BDL rats) was 0.165 ± 0.0668 ng/mL. For the same molecule, the concentration at 1 week ([2]; normal rats) was 0.14 ± 0.0127 ng/mL, the SGOT ([3]; BDL rats) was 585.0 ± 162.4 Units/L and the SGPT ([3]; BDL rats) was 210.8 ± 45.9 Units/L. It also gave a Total bilirubin ([3]; BDL rats) of 7.3 ± 1.9 mg/L, an SGOT ([3]; normal rats) of 143.0 ± 36.0 Units/L and an SGPT ([3]; normal rats) of 69.4 ± 45.9 Units/L. For the same molecule, the Total bilirubin ([3]; normal rats) was under 0.1 mg/L, the “Effect of secretin on cAMP levels of large cholangiocytes” value [4] was “did not enhance” and the Cholangiocyte apoptosis ([5]; BDL rats) was “enhanced”. For the same molecule, the “Large BDM (bile duct mass)” value [5, 6] was “decreased”, the “Percentage of PCNA-positive large cholangiocytes” value [5, 6] was “decreased” and the “Effects on bile duct mass, PCNA-positive cholangiocytes and apoptosis” value ([5]; normal rats) was “no effects”.

— patent publication US9468670B2, “Melatonin-based treatment and diagnosis of bile duct disease” (Texas A&M University System, priority 2011, dated 2016)
